Measurements reported in ChEMBL document CHEMBL1158408, “Large-scale application of high-throughput molecular mechanics with Poisson-Boltzmann surface area for routine physics-based scoring of protein-ligand complexes” (J Med Chem, 2009).

These compounds were tested against Urokinase-type plasminogen activator (Homo sapiens, UniProt P00749).
Work on `Nc1ccc2cc(NC(=O)CCc3ccccc3)ccc2n1` yielded a Ki of 10 µM. Work on `N=C(N)c1ccc2ccccc2c1` yielded a Ki of 6.31 µM. `Nc1ccc2cccc(NC(=O)C3CC3)c2n1` gave a Ki of 10 µM. For `Nc1ccc2nc(N)ccc2c1`, the Ki was 100 µM. With `N=C(N)c1ccc2cc(C(=O)Nc3ccc4c(c3)CCCN4)ccc2c1` the Ki was 0.251 µM. In the case of `CCC(C)/C=C/c1cc(C(=O)OC)cc2ccc(C(=N)N)cc12` (centres undefined), the Ki is reported as 0.398 µM. With `NC1CCc2ccccc2C1` (centres undefined) the Ki was 39.8 µM. `Nc1ccc2cc(NCCc3ccccc3)cc(Nc3ncccn3)c2n1` showed a Ki of 5.01 µM. Compound `N=C(N)NC(=O)c1cc(Br)ccc1N` has a Ki of 3.98 µM. With `Nc1ccc2c(O)cccc2c1` the Ki was 50.1 µM. Work on `CN(C)Cc1ccc(/C=C/c2cc(Br)c3cc(C(=N)N)ccc3c2)o1` yielded a Ki of 1.26 µM. For `C=CCN1CCc2cc(NC(=O)c3ccc4cc(C(=N)N)ccc4c3)ccc2C1`, the Ki was 0.1 µM. `CC(C)Oc1cccc(NC(=O)c2ccc(OCC(=N)N)c(Br)c2)c1` gave a Ki of 7.94 µM. `C1=Nc2ccccc2CN1` gave a Ki of 50.1 µM. Compound `CC(C)C1=NCCc2ccc(NC(=O)c3cc(Nc4ncccn4)c4cc(C(=N)N)ccc4c3)cc21` has a Ki of 0.00158 µM. With `Nc1ccc2cccc(NS(=O)(=O)c3cc(Br)c(Br)s3)c2n1` the Ki was 5.01 µM. `N=C(N)c1ccc2cc(C(=O)Nc3ccccc3)cc(C3CCOC3)c2c1` (centres undefined) gave a Ki of 0.1 µM. For `C=COC(=O)Nc1cccc2ccc(N)nc12`, the Ki was 5.01 µM. In the case of `N=C(N)c1ccc2cc(/C=C(\Cl)c3ccccc3)ccc2c1`, the Ki is reported as 1.58 µM. In the case of `N=C(N)c1ccc2cc(CCc3ccc4c(c3)CCNC4)ccc2c1`, the Ki is reported as 0.251 µM. `N=C(N)c1ccc2cccc(C(=O)NO)c2c1` gave a Ki of 6.31 µM. For `N=C(N)c1ccc2cc(/C=C/CCc3cccnc3)cc(Br)c2c1`, the Ki was 3.16 µM. `N=C(N)c1ccc2cc(C(=O)Nc3ccc4c(c3)CCC4)ccc2c1` was tested, and the Ki was 0.398 µM. `N#Cc1ccccc1COc1cccc2ccc(N)nc12` gave a Ki of 31.6 µM.
